Assay results published in DBAASP.
In brackets after ≈: the same amount, converted by molar mass.

Key:
Test in all cases: ≥ marks a high value that may be exact or a test limit, other limits are often not marked, values filed in µg/mL are converted to µM
[1] = test system: Bacillus subtilis ATCC 6633
[2] = test system: Escherichia coli ATCC 25922
[3] = test system: Klebsiella pneumoniae ATCC 700603
[4] = test system: Pseudomonas aeruginosa ATCC 27853
[5] = test system: Staphylococcus aureus ATCC 25923
[6] = test system: Staphylococcus epidermidis ATCC 12228
[7] = test system: Staphylococcus aureus NCTC 8325
[8] = test system: Bacillus subtilis KCTC 3068
[9] = test system: Escherichia coli KCTC 1682
[10] = test system: Pseudomonas aeruginosa KCTC 1637
[11] = test system: Salmonella typhimurium KCTC 1926
[12] = test system: Staphylococcus aureus KCTC 1621
[13] = test system: Staphylococcus epidermidis KCTC 1917
[14] = test system: Escherichia coli UB1005
[15] = test system: Salmonella enterica subsp. enterica serovar Typhimurium ATCC 14028
[16] = test system: Salmonella enterica subsp. enterica serovar Typhimurium C77-31
[17] = test system: Staphylococcus aureus ATCC 29213
[18] = test system: Staphylococcus aureus ATCC 43300
[19] = test system: Candida albicans
[20] = test system: Escherichia coli
[21] = test system: Staphylococcus aureus

Structure (SMILES)	MIC [8] [µM]	MIC [9] [µM]	MIC [10] [µM]	MIC [11] [µM]	MIC [12] [µM]	MIC [13] [µM]	further results
CC(=O)N[C@@H](Cc1ccccc1)C(=O)N[C@@H](CCCCN)C(=O)N[C@@H](CC(C)C)C(=O)N[C@@H](CCCCN)C(=O)N[C@@H](CC(C)C)C(=O)N[C@@H](CCCCN)C(=O)N[C@@H](Cc1ccccc1)C(=O)N[C@@H](CO)C(=O)N[C@@H](CC(N)=O)C(=O)N[C@@H](CCCCN)C(=O)N[C@@H](CC(C)C)C(=O)N[C@@H](CCCCN)C(=O)N[C@@H](Cc1c[nH]c2ccccc12)C(=O)N[C@@H](CCCCN)C(=O)N[C@@H](Cc1c[nH]c2ccccc12)C(N)=O [FKLKLKFSNKLKWKW]							MIC [1]: 3.2 µM (≈ 6.51 µg/mL); MIC [2]: 12.5 µM (≈ 25.4 µg/mL); MIC [3]: 25 µM (≈ 50.9 µg/mL); MIC [4]: 12.5 µM (≈ 25.4 µg/mL); MIC [5]: 25 µM (≈ 50.9 µg/mL); MIC [6]: 12.5 µM (≈ 25.4 µg/mL)
CC[C@H](C)[C@@H]1NC(=O)[C@H](C)NC(=O)[C@@H](NC(=O)[C@H](Cc2ccccc2)NC(=O)[C@@H](NC(=O)[C@H](CCCCN)NC(=O)[C@@H]2CCCN2C(=O)[C@H](CC(C)C)NC(=O)[C@H](Cc2ccccc2)NC(=O)[C@H](CCCCN)NC(=O)[C@H](C)NC(=O)[C@H](C)NC(=O)[C@@H](NC(=O)CNC(=O)[C@H](C)NC(=O)[C@@H](NC(=O)[C@H](Cc2ccccc2)NC(=O)[C@@H]2CCCN2C(=O)[C@H](CC(C)C)NC(=O)[C@@H](N)Cc2ccccc2)[C@@H](C)CC)C(C)C)[C@@H](C)CC)CSSC[C@@H](C(=O)O)NC(=O)[C@H](CCCCN)NC(=O)[C@H](CCCCN)NC(=O)[C@H](CO)NC1=O [FLPFIAGVAAKFLPKIFCAISKKC]							MIC [7]: 13 µM (≈ 33.9 µg/mL)
CC[C@H](C)[C@H](NC(=O)[C@H](CCCN=C(N)N)NC(=O)CN)C(=O)N[C@@H](CCCCN)C(=O)N[C@@H](CCCN=C(N)N)C(=O)N[C@H](C(=O)N[C@@H](CCCN=C(N)N)C(=O)N[C@@H](CCCCN)C(=O)N[C@@H](CCCCN)C(=O)N[C@H](C(=O)N[C@@H](CCCCN)C(=O)N[C@@H](CCCCN)C(=O)N[C@@H](CC(C)C)C(=O)N[C@H](C(=O)N[C@@H](CCCCN)C(=O)N[C@@H](CCCCN)C(=O)N[C@@H](CC(C)C)C(=O)N[C@@H](CO)C(N)=O)[C@@H](C)CC)[C@@H](C)CC)[C@@H](C)CC [GRIKRIRKKIKKLIKKLS]	4 (≈ 8.82 µg/mL)	4 (≈ 8.82 µg/mL)	4 (≈ 8.82 µg/mL)	2 (≈ 4.41 µg/mL)	4 (≈ 8.82 µg/mL)	8 (≈ 17.6 µg/mL)	
CC(C)C[C@H](NC(=O)[C@H](CCCCN)NC(=O)[C@H](CCCCN)NC(=O)[C@H](Cc1c[nH]c2ccccc12)NC(=O)[C@H](CC(C)C)NC(=O)[C@H](CCCCN)NC(=O)[C@H](CCCCN)NC(=O)[C@H](Cc1c[nH]c2ccccc12)NC(=O)[C@H](CCCCN)NC(=O)[C@H](CCCCN)NC(=O)[C@H](CCCN=C(N)N)NC(=O)[C@H](Cc1c[nH]c2ccccc12)NC(=O)[C@H](CCCN=C(N)N)NC(=O)[C@H](CCCCN)NC(=O)[C@H](Cc1c[nH]c2ccccc12)NC(=O)[C@H](CCCN=C(N)N)NC(=O)CN)C(=O)N[C@@H](CO)C(N)=O [GRWKRWRKKWKKLWKKLS]	2 (≈ 5 µg/mL)	4 (≈ 9.99 µg/mL)	4 (≈ 9.99 µg/mL)	2 (≈ 5 µg/mL)	4 (≈ 9.99 µg/mL)	8 (≈ 20 µg/mL)	
CC[C@H](C)[C@H](N)C(=O)NCC(=O)N[C@@H](CCCCN)C(=O)N[C@@H](CCC(=O)O)C(=O)N[C@@H](Cc1ccccc1)C(=O)N[C@@H](CCCCN)C(=O)N[C@@H](CCCN=C(N)N)C(=O)N[C@H](C(=O)N[C@H](C(=O)N[C@@H](CCC(N)=O)C(=O)N[C@@H](CCCN=C(N)N)C(=O)N[C@H](C(=O)N[C@@H](CCCCN)C(=O)N[C@@H](CC(=O)O)C(=O)N[C@@H](Cc1ccccc1)C(=O)N[C@@H](CC(C)C)C(=O)N[C@@H](CCCN=C(N)N)C(=O)N[C@@H](CC(N)=O)C(=O)N[C@@H](CC(C)C)C(=O)O)[C@@H](C)CC)C(C)C)[C@@H](C)CC [IGKEFKRIVQRIKDFLRNL]	4 (≈ 9.5 µg/mL)	8 (≈ 19 µg/mL)	16 (≈ 38 µg/mL)	8 (≈ 19 µg/mL)	4 (≈ 9.5 µg/mL)	4 (≈ 9.5 µg/mL)	
CC[C@H](C)[C@H](N)C(=O)N[C@@H](CCCN=C(N)N)C(=O)N1CCC[C@H]1C(=O)N[C@H](C(=O)N[C@@H](CCCN=C(N)N)C(=O)N1CCC[C@H]1C(=O)O)[C@@H](C)CC [IRPIRP]							MIC [2]: > 128 µM; MIC [14]: ≥ 128 µM; MIC [4]: > 128 µM; MIC [15]: > 128 µM; MIC [16]: ≥ 128 µM; MIC [5]: > 128 µM; MIC [17]: > 128 µM; MIC [18]: > 128 µM; MIC [6]: > 128 µM
CC[C@H](C)[C@H](NC(=O)[C@@H](NC(=O)[C@@H]1CCCN1C(=O)[C@H](CC(C)C)NC(=O)[C@@H](NC(=O)[C@@H](N)CO)[C@@H](C)CC)[C@@H](C)O)C(=O)N[C@H](C(=O)N[C@@H](CO)C(=O)N[C@@H](Cc1ccccc1)C(=O)N[C@@H](CC(C)C)C(=O)N[C@H](C(=O)N[C@@H](CCCCN)C(=O)N[C@@H](Cc1ccccc1)C(=O)N[C@@H](CC(C)C)C(N)=O)[C@@H](C)O)C(C)C [SILPTIVSFLTKFL]							MIC [7]: 25 µM (≈ 39.4 µg/mL)
CC[C@H](C)[C@H](NC(=O)[C@H](CCCCN)NC(=O)[C@H](CS)NC(=O)[C@H](C)NC(=O)[C@@H](NC(=O)[C@H](Cc1ccccc1)NC(=O)[C@H](CCC(=O)O)NC(=O)[C@H](CC(C)C)NC(=O)[C@H](CCC(=O)O)NC(=O)[C@@H](NC(=O)[C@H](CCCCN)NC(=O)[C@H](CCC(=O)O)NC(=O)[C@H](CC(C)C)NC(=O)[C@H](CC(N)=O)NC(=O)[C@H](CCCCN)NC(=O)[C@H](CC(C)C)NC(=O)[C@@H](NC(=O)[C@H](CO)NC(=O)[C@H](CC(C)C)NC(=O)[C@H](CCSC)NC(=O)[C@@H](N)CO)C(C)C)C(C)C)C(C)C)C(=O)N[C@@H](CC(N)=O)C(=O)N[C@@H](CCCCN)C(=O)N[C@@H](CCC(N)=O)C(=O)N[C@@H](CS)C(=O)O [SMLSVLKNLEKVELEFVACKINKQC]							MIC [19]: > 200 µM; MIC [20]: > 200 µM; MIC [21]: > 200 µM

Continued, in another order:

MIC [8] [µM]	MIC [9] [µM]	MIC [10] [µM]	MIC [11] [µM]	MIC [12] [µM]	MIC [13] [µM]	Structure (SMILES)	further results
7.82 (≈ 12.5 µg/mL)	7.82 (≈ 12.5 µg/mL)	3.91 (≈ 6.25 µg/mL)	0.976 (≈ 1.56 µg/mL)	3.91 (≈ 6.25 µg/mL)	3.91 (≈ 6.25 µg/mL)	CC[C@H](C)[C@H](NC(=O)[C@H](CCCCN)NC(=O)[C@H](CCCCN)NC(=O)[C@H](CC(C)C)NC(=O)[C@@H](N)CCCCN)C(=O)N[C@@H](Cc1c[nH]c2ccccc12)C(=O)N[C@@H](Cc1c[nH]c2ccccc12)C(=O)N[C@H](C(=O)N[C@@H](CCCCN)C(=O)N[C@H](C(=O)N[C@@H](CCCCN)C(=O)N[C@@H](CCCCN)C(N)=O)C(C)C)[C@@H](C)CC [KLKKIWWIKVKK]	
4 (≈ 6.61 µg/mL)	8 (≈ 13.2 µg/mL)	8 (≈ 13.2 µg/mL)	8 (≈ 13.2 µg/mL)	8 (≈ 13.2 µg/mL)	4 (≈ 6.61 µg/mL)	CC(C)C[C@H](NC(=O)[C@H](CC(C)C)NC(=O)[C@H](CCCCN)NC(=O)[C@H](CC(C)C)NC(=O)[C@H](CC(C)C)NC(=O)[C@H](CCCCN)NC(=O)[C@H](CCCCN)NC(=O)[C@H](CC(C)C)NC(=O)[C@H](CC(C)C)NC(=O)[C@H](CCCCN)NC(=O)[C@H](CCCCN)NC(=O)[C@H](Cc1c[nH]c2ccccc12)NC(=O)[C@@H](N)CCCCN)C(N)=O [KWKKLLKKLLKLL]	
7.08 (≈ 12.5 µg/mL)	7.08 (≈ 12.5 µg/mL)	3.54 (≈ 6.25 µg/mL)	1.77 (≈ 3.13 µg/mL)	3.54 (≈ 6.25 µg/mL)	3.54 (≈ 6.25 µg/mL)	CC[C@H](C)[C@H](NC(=O)[C@H](CCCN=C(N)N)NC(=O)[C@H](CCCN=C(N)N)NC(=O)[C@H](CC(C)C)NC(=O)[C@@H](N)CCCN=C(N)N)C(=O)N[C@@H](Cc1c[nH]c2ccccc12)C(=O)N[C@@H](Cc1c[nH]c2ccccc12)C(=O)N[C@H](C(=O)N[C@@H](CCCN=C(N)N)C(=O)N[C@H](C(=O)N[C@@H](CCCN=C(N)N)C(=O)N[C@@H](CCCN=C(N)N)C(N)=O)C(C)C)[C@@H](C)CC [RLRRIWWIRVRR]	
2 (≈ 3.85 µg/mL)	8 (≈ 15.4 µg/mL)	16 (≈ 30.8 µg/mL)	4 (≈ 7.69 µg/mL)	2 (≈ 3.85 µg/mL)	8 (≈ 15.4 µg/mL)	CC[C@H](C)[C@H](NC(=O)[C@H](CCCN=C(N)N)NC(=O)[C@H](CCCN=C(N)N)NC(=O)[C@@H](NC(=O)[C@@H](NC(=O)[C@H](CCCN=C(N)N)NC(=O)[C@H](CCCCN)NC(=O)[C@@H](N)Cc1c[nH]c2ccccc12)[C@@H](C)CC)C(C)C)C(=O)N[C@@H](Cc1c[nH]c2ccccc12)C(=O)N[C@@H](CCCN=C(N)N)C(=O)N[C@@H](Cc1c[nH]c2ccccc12)C(=O)N[C@@H](CC(C)C)C(=O)N[C@@H](CCCN=C(N)N)C(N)=O [WKRIVRRIWRWLR]	
